Measurements published in patent publication US10793509B2, “Compounds useful in the treatment of neoplastic diseases” (UNIVERSITÄT ZU KÖLN, priority 2013, dated 2020).

What was measured:
[1] = tested on: phosphorylated NFkappaBp65 protein; assay: Western blot of NFkappaB phosphorylation status in CLL cells; type: cell-based, human; settings: 3 h
Protocol: CLL cells were treated with B1, B9, B12 and B13 (0.1 μM, 1 μM, 10 μM) for 3 h. Untreated and DMSO (1%) treated cells served as control. GAPDH=loading control.
The BCR signalling pathway plays an important pathogenic role in CLL and lymphomas leading often to a constitutive active NFkappaB (in this state NFkappaB is phosphorylated). Therefore the influence of the derivatives on the phosphorylation status of NFkappaB was analyzed by Western Blot. CLL cells were treated with 0.1 μM, 1 μM or 10 μM of each derivate, respectively, for 3 h. CLL cells were treated with B1, B9, B12 and B13 (0.1 μM, 1 μM, 10 μM) for 3 h. Untreated and DMSO (1%) treated cells served as control. GAPDH=loading control.

EHEB = assay: CellTiter-Glo ATP assay, EHEB cell line; type: cell-based; settings: 24 h, 0.01-1000 μM
Protocol: (§1) Several cell lines (n=5) were treated with different concentrations of p-NO-ASA, B9, B12 and B13 ranging between 0.01 μM and 1000 μM for 24 hours followed by addition of luminogenic CellTiter-Glo®-reagent. […] For each cell line the order of used compound in the bar chart is from left to right as following: p-NO-ASA, B9, B12, B13.
(§2) Treatment success in CLL may depend on cytogenetic and molecular parameters as for instance del13q or TP53 gene disruption. Therefore, the NO-ASA derivatives were examined on (chronic) B cell lymphoma cell lines with different geno- and phenotypes (JVM3, EHEB, U2932, MEC-1, GRANTA-519). The cells were treated with concentrations between 0.01 and 1000 μM for 24 h followed by the addition of luminogenic CellTiter-Glo® reagent.

U2932 = assay: CellTiter-Glo ATP assay, U2932 cell line; type: cell-based; settings: 24 h, 0.01-1000 μM
Protocol: as §1, §2

[2] = tested on: ovarian adenocarcinoma cell line COLO704; assay: Viability assay (ATP content, CellTiter-Glo), COLO704; type: cell-based; settings: COLO 704, 24 h
Protocol: (§3) In the following experiment the possible therapeutic window for NO-ASA derivatives was investigated. […] The melanoma cell line MelJuso, the colon carcinoma cell line SW480, the small cell lung cancer cell line HCC44, the ovarian adenocarcinoma cell line COLO704 and the acute myeloid leukemia cell line SH2 were treated with concentrations of p-NO-ASA and B9, B12 and B13 in a range between 0.01 μM and 100 μM for 24 h, followed by addition of luminogenic CellTiter-Glo® reagent.
(§4) Table accompanying Example 5. Overview of the EC50 values of cell survival analyzed by ATP content and Annexin V/PI assay. n.t.; not tested

[3] = tested on: melanoma cell line MelJuso; assay: Viability assay (ATP content, CellTiter-Glo), MelJuso; type: cell-based; settings: Homo sapiens, MEL-JUSO, 24 h
Protocol: as §3, §4

JVM-3 = assay: CellTiter-Glo ATP assay, JVM-3 cell line; type: cell-based, human; settings: 24 h, 0.01-1000 μM
Protocol: as §1, §2

[4] = tested on: SW480, MelJuso, HCC44, SH2 and COLO704 cell lines; type: cell-based; settings: 24 h, 0.01-100 μM
Protocol: as §3

[5] = tested on: ovarian adenocarcinoma cell line COLO704; assay: Annexin V/PI assay, COLO704; type: cell-based; settings: COLO 704, 24 h
GRANTA-519 = assay: CellTiter-Glo ATP assay, GRANTA-519 cell line; type: cell-based; settings: Homo sapiens, Granta-519; 24 h, CellTiter-Glo
Protocol: as §1, §2

TP53-mutated CLL cells = assay: FACS analysis of treated CLL cells with TP53 mutation; type: cell-based, human; settings: 24 h, 0.01-100 μM, FIG. 6
Protocol: Isolated, primary CLL cells were treated for 24 h with the EC50 of the different compounds and the ATP-content was measured by flow cytometry. For each used compound the order of mean EC50 concentrations in the bar chart is from left to right as following: EC50 CLL cells TP53 unmut (unmutated=without mutation), EC50 CLL cells TP53 mut (mutated=with mutation).
Further, the derivatives B9, B12 and B13 were tested in comparison to para-NO-ASA on CLL cells which harbour a TP53 mutation. The patient subgroup with a TP53 disruption is characterized by a considerable dismal prognosis. CLL cells of patients with and without the TP53 mutation were treated with five different concentrations (0.01, 0.1, 1, 10, 100 μM) of para-NO-ASA, B9, B12 and B13 for 24 h.

[6] = tested on: colon carcinoma cell line SW480; assay: cells; type: cell-based; settings: Homo sapiens, SW480, 24 h, read-out: Viability assay EC50, SW480
Protocol: The cell lines (n=5) were treated with different concentrations of p-NO-ASA, B9, B12 and B13 ranging between 0.01 μM and 100 μM for 24 hours followed by addition of luminogenic CellTiter-Glo®-reagent (see Example 5).
as §3, §4

[7] = tested on: peripheral blood mononuclear cells (PBMCs) of healthy donors; assay: AnnexinV/PI assay on PBMCs of healthy donors; type: cell-based; settings: Homo sapiens, PBMC; 24 h incubation, 0.01-100 μM, 5*10^6 cells/ml, normalized to DMSO control; read-out: AnnexinV/PI assay EC50 PBMCs
Protocol: PBMCs or CLL cells (5*10^6 cells/ml) were incubated for 24 h with different compounds at concentrations from 0.01 to 100 μM. Cell survival was normalized to DMSO control [vehicle]. See Example 1.
Primary CLL or peripheral blood mononuclear cells of healthy donors (5*10^6/ml) were incubated for 24 h with different compounds according to the invention and NO-ASA as a control. The compounds were added in different concentrations, in particular in concentrations from 0.01-100 μM. Cell survival was assessed by AnnexinV/PI assay (Kit commercially available, e.g. by Biotium Inc, USA; or Phoenix Flow Systems, US), the results were normalized to DMSO control [vehicle] and dose response curves were calculated using a non-linear regression model.

[8] = tested on: small cell lung cancer cell line HCC44; assay: Annexin V/PI assay, HCC44; type: cell-based; settings: Homo sapiens, HCC44, 24 h
[9] = tested on: melanoma cell line MelJuso; assay: Annexin V/PI assay, MelJuso; type: cell-based; settings: Homo sapiens, MEL-JUSO, 24 h

O=C(Oc1ccc(CO[N+](=O)[O-])cc1)c1ccccc1 [B9, 4-((nitrooxy)methyl)phenyl benzoate]
reduction of NFkappaB activity (phosphorylated NFkappaBp65) ([1]; CLL cells, 0.1, 1, 10 μM): concentration dependent reduction
concentration inducing the reduction of NFkappaB p65 protein ([1]; CLL cells): 10 µM
ATP content in EHEB (EHEB): reduced ATP content
ATP content in U2932 (U2932): reduced ATP content
EC50 [2]: 4.33 µM
EC50 [3]: 0.89 µM
ATP content in JVM-3 (JVM-3): reduced ATP content
ATP content in SW480, MelJuso, HCC44, SH2 and COLO704 cell lines [4]: reduced ATP content
EC50 [5]: 7.25 µM
EC50 (GRANTA-519): 2.28 µM
effect on TP53-mutated CLL cells in comparison to para-NO-ASA (B1) (TP53-mutated CLL cells): more effective
EC50 [6]: 31.8 µM
EC50 [7]: 79.5 µM
EC50 [8]: 6.76 µM
EC50 [9]: 8.76 µM
